The subject of test [1] is SNU-638. In words: Cell viability / antiproliferative assay (WST-8), SNU-638. It counts as cell-based, human. The following applies: read-out: SNU-638 IC50. In general terms: Tetrazolium dyes change colour on reduction, which living cells bring about.
Method: (§2) c-MET overexpressing human gastric cancer cell lines [MKN45] and [SNU638] were cultured in RPMI medium with 10% fetal bovine serum, penicillin (100U/ml), and streptomycin (100mg/ml), and c-MET exon 14 skipping mutant human gastric cancer cell lines [Hs746T] were cultured in DMEM media. The c-MET overexpressing human lung cancer cell line EBC-1 was cultured in MEM media with the addition of 10% fetal bovine serum, penicillin (100U/ml), and streptomycin (100mg/ml). […] The compound synthesized in accordance with the present invention was prepared with a raw material solution of 10 mM dissolved in DMSO (dimethyl sulfoxide), and was sequentially diluted and processed.
(§3) In order to observe the inhibitory activity on cell growth, cells were dispensed in a 96-well plate at a concentration of 5,000 cells/well, and then treated with the compound prepared at various concentrations for 72 hours. The viability of the cells was calculated using GraphicPad Prism 8.0 software by adding 10 ml per well of WST-8 (water soluble tetrazolium salt) sample, which reacts with dehydrogenase present in the electron transport system of mitochondria to produce formazon, incubated for 2 hours, and measured absorbance at 450 nm.
Test [2] relates to EBC-1. In words: Cell viability / antiproliferative assay (WST-8), EBC-1. Type of test: cell-based, human. Conditions: read-out: EBC-1 IC50.
Method: as §2, §3
The target in test [3] is T1, c-MET (Homo sapiens, UniProt P08581). In words: c-MET protein degradation (Simple Western), EBC-1. It counts as cell-based. Set-up: assess the resolution of the compound of the present invention for c-MET expressed in cells; endogenous in cells; host or cells: EBC-1 (human lung cancer). The following applies: c-MET overexpressing lung cancer cell line EBC-1, treated 48 hours; Table 2. As for the experimental part: (§1) In order to assess the resolution of the compound of the present invention for c-MET expressed in cells, cells were dispensed in a 12-well plate at a concentration of 2 × 10^5 cells/well, and then gastric cancer cell lines were treated with samples for 24 hours and lung cancer cell lines were treated for 48 hours. Cell lysates were collected using a scraper on ice, centrifuged at 4°C15,000 rpm for 30 min to obtain a protein-containing supernatant. Protein expression was then measured using the Simple Western Automated Western Blot System Abby instrument using 3 µg of protein for each sample. SDS and heat-induced denaturation proteins were separated by molecular weight, attached to capillary, reacted with anti-c-MET or anti-GAPDH antibodies, which are primary antibodies, and then reacted with HRP-conjugated secondary antibodies, and analyzed the protein expression signal with compass software. Protein expression was normalized based on the expression value of GAPDH, and protein development in each sample was measured as a percentage (%) based on 100% of samples treated with 0.1% DMSO carriers, and DC50 (concentration of a compound where 50% protein inhibition is achieved) was calculated from the change in protein expression amount due to compound treatment.

The target of test [4] is T1, c-MET. In words: c-MET protein degradation (Simple Western), SNU-638. Type of test: cell-based. Set-up: assess the resolution of the compound of the present invention for c-MET expressed in cells; endogenous in cells; host or cells: SNU638 (human gastric cancer). The following applies: c-MET overexpressing gastric cancer cell line SNU-638, treated 24 hours; Table 2. As for the experimental part: as §1

Test [5] deals with Hs746T. In words: Cell viability / antiproliferative assay (WST-8), Hs746T. Conditions: Homo sapiens, Hs746T cells, 72 hours, Table 2. It counts as cell-based.
Method: as §2, §3
The test system of test [6] is MKN-45. The test can be described thus: Cell viability / antiproliferative assay (WST-8), MKN-45.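 Also: MKN-45 is a human gastric cancer line overexpressing c-MET, growth inhibition read as WST-8 formazan absorbance at 450 nm after 2 h dye incubation.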 Conditions: Homo sapiens, MKN-45, 72 h, read-out: MKN-45 IC50.
Test [7] concerns the target T1, c-MET. In words: c-MET protein degradation (Simple Western), MKN-45. Conditions: c-MET overexpressing gastric cancer cell line MKN-45, treated 24 hours; Table 2. It counts as cell-based. Further details: assess the resolution of the compound of the present invention for c-MET expressed in cells; endogenous in cells; host or cells: MKN45 (human gastric cancer). In outline: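 c-MET level, GAPDH-normalized and relative to 0.1% DMSO-treated cells, measured by automated capillary Western (3 µg protein) after compound exposure of 48 h for lung or 24 h for gastric cancer lines; DC50 = concentration giving 50% reduction.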

[8] abbreviates: Homo sapiens, SNU-638 cells, 72 hours, WST-8, Table 2.
The mark [9] stands for this setting: Homo sapiens, EBC-1 cells, 72 hours, WST-8, Table 2.

Where two headings read alike, the source gives them in different places.

T1 sequence (P08581 25-1390): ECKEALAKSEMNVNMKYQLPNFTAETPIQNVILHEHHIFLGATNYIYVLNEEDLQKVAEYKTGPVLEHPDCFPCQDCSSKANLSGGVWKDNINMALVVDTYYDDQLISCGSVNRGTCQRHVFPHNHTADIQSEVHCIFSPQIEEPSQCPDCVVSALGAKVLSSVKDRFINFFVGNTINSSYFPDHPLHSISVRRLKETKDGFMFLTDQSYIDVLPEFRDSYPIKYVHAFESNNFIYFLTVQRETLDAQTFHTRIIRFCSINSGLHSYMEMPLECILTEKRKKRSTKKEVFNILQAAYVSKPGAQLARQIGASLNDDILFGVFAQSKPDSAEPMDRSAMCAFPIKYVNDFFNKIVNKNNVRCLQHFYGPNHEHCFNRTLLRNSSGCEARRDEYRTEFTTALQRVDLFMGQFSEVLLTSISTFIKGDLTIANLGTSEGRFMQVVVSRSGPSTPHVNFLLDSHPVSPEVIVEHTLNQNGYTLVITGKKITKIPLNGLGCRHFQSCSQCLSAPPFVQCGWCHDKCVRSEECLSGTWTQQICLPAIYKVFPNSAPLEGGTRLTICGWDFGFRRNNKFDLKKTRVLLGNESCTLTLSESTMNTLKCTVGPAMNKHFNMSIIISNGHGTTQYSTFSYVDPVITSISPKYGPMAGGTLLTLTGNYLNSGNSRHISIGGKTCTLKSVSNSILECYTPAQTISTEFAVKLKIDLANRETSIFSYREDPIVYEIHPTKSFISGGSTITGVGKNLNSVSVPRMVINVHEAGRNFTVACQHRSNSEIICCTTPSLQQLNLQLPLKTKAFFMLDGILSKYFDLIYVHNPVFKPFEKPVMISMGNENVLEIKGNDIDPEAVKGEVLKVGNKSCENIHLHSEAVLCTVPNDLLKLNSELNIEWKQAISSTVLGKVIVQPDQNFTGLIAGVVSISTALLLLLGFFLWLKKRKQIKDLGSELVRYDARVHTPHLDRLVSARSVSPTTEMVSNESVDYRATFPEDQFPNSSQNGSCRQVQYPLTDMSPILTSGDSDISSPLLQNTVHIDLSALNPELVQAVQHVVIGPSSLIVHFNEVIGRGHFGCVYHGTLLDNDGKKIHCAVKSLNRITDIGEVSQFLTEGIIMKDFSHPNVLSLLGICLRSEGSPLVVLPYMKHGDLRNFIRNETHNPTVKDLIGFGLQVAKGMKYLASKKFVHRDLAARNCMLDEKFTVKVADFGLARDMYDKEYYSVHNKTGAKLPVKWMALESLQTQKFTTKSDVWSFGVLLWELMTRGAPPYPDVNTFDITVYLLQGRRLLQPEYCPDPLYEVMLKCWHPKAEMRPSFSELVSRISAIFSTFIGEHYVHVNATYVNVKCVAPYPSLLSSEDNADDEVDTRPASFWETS

For orientation: IC50 means the concentration that inhibits the measured activity by half. What is called DC50 is the concentration at which degradation of the target reaches its halfway point. Consider `N#Cc1cccc(-c2ccc(=O)n(Cc3cccc(-c4ncc(OCC5CCN(CC(=O)N6CCC(CN7CCN(c8ccc(NC9CCC(=O)NC9=O)cc8F)CC7)CC6)CC5)cn4)c3)n2)c1` (stereo not shown) [ICT-0001447, 3-(1-{[3-(5-{[1-(2-{4-[(4-{4-[(2,6-dioxopiperidin-3-yl)amino]-2-fluorophenyl}piperazine-1-yl)methyl]piperidine-1-yl}-2-oxoethyl)piperidine-4-yl]methoxy}pyrimidine-2-yl)phenyl]methyl}-6-oxo-1,6-dihydropyridazine-3-yl)benzonitrile], for which the IC50 in test [1] (setting [8]) and in test [2] (setting [9]) was less than 100 nM in each case. For the same compound, the DC50 was less than 100 nM in test [3] and 100 to 1000 nM in test [4].

With `Cc1nn(C2CCC(=O)NC2=O)c(=O)c2ccc(N3CCN(C(=O)CCN4CCC(COc5cnc(-c6cccc(Cn7nc(-c8cccc(C#N)c8)ccc7=O)c6)nc5)CC4)CC3)cc12` (stereo not shown) [ICT-0001224], the IC50 in test [5] and in test [6] was less than 100 nM throughout. In test [7], this compound returned a DC50 of less than 100 nM.

In the case of `N#Cc1cccc(-c2ccc(=O)n(Cc3cccc(-c4ncc(OCC5CCN(CC6CN(c7ccc(NC8CCC(=O)NC8=O)cc7F)C6)CC5)cn4)c3)n2)c1` (stereo not shown) [ICT-0001425], the IC50 in test [1] (SNU-638 cells, 72 hours, WST-8, Table 2) is less than 100 nM; in test [2] (EBC-1 cells, 72 hours, WST-8, Table 2), less than 100 nM. The DC50 in test [3] and in test [4] was less than 100 nM each time.

As to `N#Cc1cccc(-c2ccc(=O)n(Cc3cccc(-c4ncc(OCC5CCN(CCCC(=O)N6CCN(c7ccc8c(=O)n(C9CCC(=O)NC9=O)ncc8c7)CC6)CC5)cn4)c3)n2)c1` (stereo not shown) [ICT-0001226], the IC50 in test [5] and in test [6] was less than 100 nM each time.

For the compound `N#Cc1cccc(-c2ccc(=O)n(Cc3cccc(-c4ncc(OCC5CCN(C(=O)CN6CCN(c7ccc(NC8CCC(=O)NC8=O)cc7F)CC6)CC5)cn4)c3)n2)c1` (stereo not shown) [ICT-0001494], the IC50 was less than 100 nM in test [1] (Homo sapiens, SNU-638, 72 h) and less than 100 nM in test [2] (Homo sapiens, EBC-1, 72 h). Also, the half-maximal degradation concentration (DC50) in test [3] and in test [4] was less than 100 nM throughout.

Regarding `N#Cc1cccc(-c2ccc(=O)n(Cc3cccc(-c4ncc(OCC5CCN(CCC(=O)N6CCN(c7ccc8c(=O)n(C9CCC(=O)NC9=O)ncc8c7)CC6)CC5)cn4)c3)n2)c1` (stereo not shown) [ICT-0001223], the IC50 in test [5] and in test [6] was less than 100 nM in each case. In addition, in test [7], the DC50 was less than 100 nM.

Turning to `N#Cc1cccc(-c2ccc(=O)n(Cc3cccc(-c4ncc(-c5cccc(CN6CCC(CN7CCN(c8ccc(NC9CCC(=O)NC9=O)cc8F)CC7)CC6)c5)cn4)c3)n2)c1` (stereo not shown) [ICT-0001450], the IC50 in test [1] (Homo sapiens, SNU-638, 72 h) is less than 100 nM; in test [2] (Homo sapiens, EBC-1, 72 h) it was less than 100 nM. The compound further displayed a DC50 in test [3] of less than 100 nM.

Take `N#Cc1cccc(-c2ccc(=O)n(Cc3cccc(-c4ncc(OCC5CCN(c6ccc(NC7CCC(=O)NC7=O)cc6F)CC5)cn4)c3)n2)c1` (stereo not shown) [ICT-0001383]: the IC50 in test [1] (Homo sapiens, SNU-638, 72 h) is less than 100 nM; in test [2] (Homo sapiens, EBC-1, 72 h), less than 100 nM. For the same compound, the 50% degradation concentration (DC50) in test [3] and in test [4] was less than 100 nM in each case.

Turning to `N#Cc1cccc(-c2ccc(=O)n(Cc3cccc(-c4ncc(OCC5CCN(CC(=O)N6CCN(CC7CCN(c8ccc(NC9CCC(=O)NC9=O)cc8F)CC7)CC6)CC5)cn4)c3)n2)c1` (stereo not shown) [ICT-0001468, 3-(1-{[3-(5-{[1-(2-{4-[(1-{4-[(2,6-dioxopiperidin-3-yl)amino]-2-fluorophenyl}piperidine-4-yl)methyl]piperazine-1-yl}-2-oxoethyl)piperidine-4-yl]methoxy}pyrimidine-2-yl)phenyl]methyl}-6-oxo-1,6-dihydropyridazine-3-yl)benzonitrile], the IC50 in test [1] (setting [8]) and in test [2] (setting [9]) was less than 100 nM each time. The values for the DC50 in test [3] and in test [4] were less than 100 nM and 100 to 1000 nM, respectively.

As for `N#Cc1cccc(-c2ccc(=O)n(Cc3cccc(-c4ncc(OCC5CCN(CCN6CCN(c7ccc8c(=O)n(C9CCC(=O)NC9=O)ncc8c7)CC6)CC5)cn4)c3)n2)c1` (stereo not shown) [ICT-0001276, 3-(1-{[3-(5-{[1-(2-{4-[2-(2,6-dioxopiperidin-3-yl)-1-oxo-1,2-dihydropetalazine-6-yl]piperazine-1-il}ethyl)piperidine-4-il]methoxy}pyrimidine-2-yl)phenyl]methyl}-6-oxo-1,6-dihydropyridazine-3-yl)benzonitrile], the IC50 is less than 100 nM in test [1] (Homo sapiens, SNU-638, 72 h) and less than 100 nM in test [6]. The figures for the DC50 in test [3] and in test [7] were greater than 1000 nM and less than 100 nM, respectively.

As for `Cc1nn(C2CCC(=O)NC2=O)c(=O)c2ccc(N3CCN(C(=O)CCCCN4CCC(COc5cnc(-c6cccc(Cn7nc(-c8cccc(C#N)c8)ccc7=O)c6)nc5)CC4)CC3)cc12` (stereo not shown) [ICT-0001250], the IC50 in test [5] and in test [6] was less than 100 nM throughout.

`Cc1nn(C2CCC(=O)NC2=O)c(=O)c2cc(N3CCN(C(=O)CCCN4CCC(COc5cnc(-c6cccc(Cn7nc(-c8cccc(C#N)c8)ccc7=O)c6)nc5)CC4)CC3)ccc12` (stereo not shown) [ICT-0001228]: the IC50 in test [5] lay in the range of 100 to 1000 nM. Moreover, in test [7], the DC50 was less than 100 nM.

Turning to `N#Cc1cccc(-c2ccc(=O)n(Cc3cccc(-c4ncc(-c5cccc(CN6CCN(c7ccc(C8CCC(=O)NC8=O)cn7)CC6)c5)cn4)c3)n2)c1` (stereo not shown) [ICT-0001449], the IC50 is less than 100 nM in test [1] (Homo sapiens, SNU-638, 72 h) and less than 100 nM in test [2] (Homo sapiens, EBC-1, 72 h). Also, the DC50 is less than 100 nM in test [3] and greater than 1000 nM in test [4].

Consider `N#Cc1cccc(-c2ccc(=O)n(Cc3cccc(-c4ncc(-c5cccc(CN6CCN(c7ccc(NC8CCC(=O)NC8=O)cc7F)CC6)c5)cn4)c3)n2)c1` (stereo not shown) [ICT-0001434], for which the IC50 in test [1] (Homo sapiens, SNU-638, 72 h) was less than 100 nM; in test [2] (Homo sapiens, EBC-1, 72 h) it was less than 100 nM. Besides, the DC50 in test [3] was less than 100 nM; in test [4], greater than 1000 nM.

Regarding `N#Cc1cccc(-c2ccc(=O)n(Cc3cccc(-c4ncc(OCC5CCN(CCN6CCN(c7ccc(NC8CCC(=O)NC8=O)cc7F)CC6)CC5)cn4)c3)n2)c1` (stereo not shown) [ICT-0001433, 3-(1-(3-(5-((1-(1-(2-(4-((2,6-dioxopiperidine-3-yl)amino)-2-fluorophenyl)piperazine-1-il)ethyl)piperidine-4-il)methoxy)pyrimidine-2-yl)benzyl)6-oxo-1,6-dihydropyridazine-3-yl)benzonitrile], the IC50 in test [1] (Homo sapiens, SNU-638, 72 h) is less than 100 nM; in test [2] (Homo sapiens, EBC-1, 72 h), less than 100 nM. The DC50 in test [3] and in test [4] was less than 100 nM throughout.

For `N#Cc1cccc(-c2ccc(=O)n(Cc3cccc(-c4ncc(OCC5CCN(CC(=O)N6CC(N7CCN(c8ccc9c(=O)n(C%10CCC(=O)NC%10=O)ncc9c8)CC7)C6)CC5)cn4)c3)n2)c1` (stereo not shown) [ICT-0001232], the IC50 was less than 100 nM in test [2] (Homo sapiens, EBC-1, 72 h) and less than 100 nM in test [6]. Also, the DC50 in test [3], in test [7] and in test [4] was less than 100 nM throughout.

`Cc1nn(C2CCC(=O)NC2=O)c(=O)c2cc(N3CCN(C(=O)CCN4CCC(COc5cnc(-c6cccc(Cn7nc(-c8cccc(C#N)c8)ccc7=O)c6)nc5)CC4)CC3)ccc12` (stereo not shown) [ICT-0001.225]: the IC50 in test [5] and in test [6] was less than 100 nM in each case. The compound also yielded a DC50 in test [7] of less than 100 nM.

As to `N#Cc1cccc(-c2ccc(=O)n(Cc3cccc(-c4ncc(OCC5CCN(CC(=O)NCCCC#Cc6ccc7c(=O)n(C8CCC(=O)NC8=O)ncc7c6)CC5)cn4)c3)n2)c1` (stereo not shown) [ICT-0001205], the IC50 in test [5] is 100 to 1000 nM; in test [6] it was less than 100 nM. Besides, the DC50 in test [7] was less than 100 nM.

In the case of `Cc1nn(C2CCC(=O)NC2=O)c(=O)c2ccc(N3CCN(C(=O)CCCN4CCC(COc5cnc(-c6cccc(Cn7nc(-c8cccc(C#N)c8)ccc7=O)c6)nc5)CC4)CC3)cc12` (stereo not shown) [ICT-0001227, 3-(1-(3-(5-((1-(4-(4-(2-(2,6-dioxopiperidin-3-yl)-4-methyl-1-oxo-1,2-dihydropetalazine-6-yl)piperazine-1-yl)4-oxobutyl)piperidine-4-yl)methoxy)pyrimidine-2-yl)benzyl)6-oxo-1,6-dihydropyridazine-3-yl)benzonitrile], the IC50 in test [5] and in test [6] was less than 100 nM each time.

The values are drawn from patent publication EP4624466A1, “DEGRADER FOR DECOMPOSING CMET PROTEIN, AND PHARMACEUTICAL COMPOSITION COMPRISING SAME” (Innocure Therapeutics, Inc., priority 2022, dated 2024).
